Data reported in US5945404A, “21-Substituted steroid compound” (priority 1993, dated 1999).
Read-outs that look alike come from different tables or passages of the source.

Columns and labels:
[1] = Effects of 7-day Ointment Rubbing on Organ Weights; type: in vivo, male Sprague-Dawley rats; conditions: Table 7, 7-day rubbing, 100 mg ointment once daily; for Leukocyte count: normal animal 0.0
Experimental: (§1) Ointment to be tested was prepared usign white soft paraffin as the base and containing dexamethasone at 0.1% concentration.
Groups of 5 male Sprague-Dawley rats each weighing 150-170 g were used. Under ether anesthesia, the dorsum of animals were closely clipped, and test drug (100 mg) was carefully rubbed in the clipped dorsal area for 30 seconds. Rats were slipped on plastic cang to prevent them from licking the drug-applied area. After the drug rubbing once daily for 7 days, on the 8th day rats were anesthetized with ether. Blood samples were collected, and thymus, spleen, and adrenal were excised and measured their wet weights. Furthermore, leukocyte number was counted with the blood samples collected. Results were expressed as the per cent of change of body weight on the 8th day as compared with that on the 1st day of rubbing. Similarly, the per cent of change in weights of thymus, spleen and adrenal on the 8th day as compared with that of the control animlas were shown.

[2] = test system: granuloma; test: Inhibitory Effects on Granuloma Growth (Paper Disk Method); type: in vivo, male Sprague-Dawley rats; conditions: ointment 0.1%, 50 mg once a day, 7 days; for change in vivo at 0.1 %, 50 mg: Rattus norvegicus, topical, 168 h
Experimental: as §1
Groups of 5 male Sprague-Dawley rats each weighing 150-170 g were used. Under ether anesthesia, the dorsum of animals was closely clipped, and medianly incised. After each one pre-weighed paper disk (8-mm diameter, 1-mm thick, weighing about 30 mg; Toyo-Roshi filter paper) was inserted subcutaneously into both sides of the dorsal incision, the incision was sutured. In order to prevent bacterial infection, penicillin G potassium salt (2,000 units) per rat was intramascularly injected after the surgery. Base or ointment to be tested (50 mg each) was rubbed carefully into the skin over the paper disk inserted site, for 30 seconds once a day for the duration of 7 days. Rats were slipped plastic cangs on to prevent them from licking the drug applied sites. On the 8th day of the test, rats were sacrificed under ether anesthesia, and granulomas were carefully excised. Granulomas were dried at 40° C. for 24 h, and their dry weights were recorded.
Inhibitory effects of dexamethasone derivatives on the weight increase of granuloma of experimental animals as compared with those of control animals are shown as per cent of inhibition ov er the control in Table 1. Figures wihth asterisks in the table indicate signfiicant difference. The same will be applied to the following other tables.

[3] = test system: croton oil-induced ear edema; test: Inhibitory Effects on Croton oil-induced Ear Lobe Edema; type: in vivo, male ddY mice; conditions: Table 5, ointment 20 mg, mouse ear lobe
Experimental: as §1
Groups of 10 male ddY mice each weighing about 25 g were used. Ointment to be tested (20 mg) was rubbed in the right-side ear lobe, and, 30 min later, a drop of 4 % croton oil dissolved in either was applied to it. Thirty minute after that treatment, mice were sacrificed. Ear lobes on both sides were punched out in the size of 5-mm diameter, and weighed. Results were expressed by calculating the per cent of weight change of the right edema ear as compared with that of the untreated left ear, and compared with that of the control.

[4] = test system: croton oil-induced granuloma; test: Croton Oil-induced Granuloma (granuloma pouch); type: in vivo, male Sprague-Dawley rats; conditions: Rattus norvegicus, 168 h, 7 days; for inhibition in vivo at 0.01 mg: 0.01 mg/rat; for inhibition in vivo at 0.1 mg: 0.1 mg/rat; for inhibition in vivo at 1 mg: 1.0 mg/rat
Experimental: Groups of 5 male Sprague-Dawley rats each weighing 160-180 g were used. Under ether anesthesia, the dorsum of animals was closely clipped, and air sac was formed by injecting air (20 ml) subcutaneously. Next day cotton seed oil containing 1% croton oil was injected into the air sac. Drugs to be tested were suspended in the cotton seed oil containing 1% croton oil, and administered. After 7 days, the blood was taken from the animal under ether anesthesia. Then, the granuloma pouch fluid (exudate) was collected, and the fluid volume was measured. The pouch wall formed around granuloma and thymus were also excised and weighed.

[5] = read-out: Weight of granuloma, per cent of change of the controls, rat, paper disk
[6] = read-out: Effects on granuloma weight, per cent of inhibition over the control
[7] = read-out: Effects on pouch fluid (exudate) volume, per cent of inhibition over the control

SMILES | Adrenal weight, per cent of change vs control animals [1] [per cent] | Body weight, per cent of change on the 8th day vs 1st day [1] [per cent] | Spleen weight, per cent of change vs control animals [1] [per cent] | Thymus weight, per cent of change vs control animals [1] [per cent] | Leukocyte count [1] | change in vivo at 0.1 %, 50 mg [2, 5] [%] | Percent of inhibition of ear edema [3] [%] | Weight of granuloma, per cent of change of the controls ([2]; rat, paper disk) [per cent] | further results
C[C@@H]1C[C@H]2[C@@H]3CCC4=CC(=O)C=C[C@]4(C)[C@@]3(F)[C@@H](O)C[C@]2(C)[C@@]1(O)C(=O)CO[C@@H]1O[C@H](CO)[C@@H](O)[C@H](O)[C@H]1O [Compound 5β, glucosyldexamethasone] | -49.6 ± 3.2 | 0.7 ± 1.4 | -56.0 ± 1.6 | -85.7 ± 2.6 | -46.6 ± 8.2 | -47.4 ± 2.9 | – | – | –
C[C@@H]1C[C@H]2[C@@H]3CCC4=CC(=O)C=C[C@]4(C)[C@@]3(F)[C@@H](O)C[C@]2(C)[C@@]1(O)C(=O)CO[C@H]1O[C@H](CO)[C@H](O)[C@H](O)[C@H]1O [Compound 15α, galactosyldexamethasone] | -48.3 ± 2.9 | 8.3 ± 1.0 | -35.7 ± 2.3 | -82.2 ± 3.3 | -22.6 ± 7.4 | -39.5 ± 1.8 | – | – | –
C[C@@H]1C[C@H]2[C@@H]3CCC4=CC(=O)C=C[C@]4(C)[C@@]3(F)[C@@H](O)C[C@]2(C)[C@@]1(O)C(=O)CO[C@@H]1O[C@H](CO)[C@H](O)[C@H](O)[C@H]1O [Compound 15β, galactosyldexamethasone] | -47.1 ± 1.9 | 4.6 ± 0.9 | -43.2 ± 2.1 | -86.0 ± 1.4 | -37.0 ± 6.9 | -41 ± 2.6 | – | – | –
C[C@@H]1C[C@H]2[C@@H]3CCC4=CC(=O)C=C[C@]4(C)[C@@]3(F)[C@@H](O)C[C@]2(C)[C@@]1(O)C(=O)CO[C@H]1O[C@H](CO)[C@@H](O)[C@H](O)[C@@H]1O [Compound 25α, mannosyldexamethasone] | -24.4 ± 3.4 | 16.1 ± 1.7 | -18.2 ± 2.2 | -32.6 ± 7.4 | -0.7 ± 9.0 | -18 ± 4.8 | – | – | –
CC(=O)OC[C@H]1O[C@H](OCC(=O)[C@@]2(O)[C@H](C)C[C@H]3[C@@H]4CCC5=CC(=O)C=C[C@]5(C)[C@@]4(F)[C@@H](O)C[C@@]32C)[C@@H](OC(C)=O)[C@@H](OC(C)=O)[C@@H]1OC(C)=O [Compound 29, mannosyldexamethasone (per Ac derivative)] | – | – | – | – | – | – | 22.1 ± 4.7 | -35.7 ± 5.6 | –
CC(=O)N[C@H]1C(OCC(=O)[C@@]2(O)[C@H](C)C[C@H]3[C@@H]4CCC5=CC(=O)C=C[C@]5(C)[C@@]4(F)[C@@H](O)C[C@@]32C)O[C@H](CO)[C@H](O)[C@@H]1O (some centres unmarked) [Compound 44', N-acetylgalactosaminyldexamethasone] | – | – | – | – | – | – | – | – | Percent of inhibition of ear edema ([3]; listed as 44'): 7.9 ± 7.2%; Weight of granuloma, per cent of change of the controls ([2]; rat, paper disk, listed as 44'): 3.3 ± 4.7 per cent
CC(=O)N[C@H]1C(OCC(=O)[C@@]2(O)[C@H](C)C[C@H]3[C@@H]4CCC5=CC(=O)C=C[C@]5(C)[C@@]4(F)[C@@H](O)C[C@@]32C)O[C@H](CO)[C@H](O)[C@@H]1O (some centres unmarked) [Compound 45', N-acetylgalactosaminyldexamethasone] | – | – | – | – | – | – | – | – | Percent of inhibition of ear edema ([3]; listed as 45'): 21.0 ± 6.4%; Weight of granuloma, per cent of change of the controls ([2]; rat, paper disk, listed as 45'): -11.8 ± 10.1 per cent
CC(=O)OC1C(C)OC(OCC(=O)C2(O)C(C)CC3C4CCC5=CC(=O)C=CC5(C)C4(F)C(O)CC32C)C(OC(C)=O)C1OC(C)=O (stereo not drawn) [Compound 74β, fucosyldexamethasone] | – | – | – | – | – | – | 14.1 ± 4.5 | 1.6 ± 16.2 | –
CC1OC(OCC(=O)C2(O)C(C)CC3C4CCC5=CC(=O)C=CC5(C)C4(F)C(O)CC32C)C(O)C(O)C1O (stereo not drawn) [Compound 75β, β-fucosyldexamethasone] | – | – | – | – | – | – | 22.0 ± 4.7 | -10.0 ± 8.8 | –
Cc1ccc(C(=O)OC[C@H]2O[C@@H](OCC(=O)[C@@]3(O)[C@@H](C)C[C@H]4[C@@H]5C[C@H](F)C6=CC(=O)C=C[C@]6(C)[C@@]5(F)[C@@H](O)C[C@@]43C)[C@H](OC(=O)c3ccc(C)cc3)[C@@H](OC(=O)c3ccc(C)cc3)[C@@H]2OC(=O)c2ccc(C)cc2)cc1 [Compound 107β, glucosyldiflorasone (p-toluoyl derivative)] | – | – | – | – | – | – | – | – | inhibition in vivo at 0.01 mg [4, 6]: -21.2 ± 19.2%; inhibition in vivo at 0.01 mg [4, 7]: -28.5 ± 18.8%; inhibition in vivo at 0.1 mg [4, 6]: -23.3 ± 21.4%; inhibition in vivo at 0.1 mg [4, 7]: -30.9 ± 20.9%; inhibition in vivo at 1 mg [4, 6]: 28.1 ± 12.5%; inhibition in vivo at 1 mg [4, 7]: 28.8 ± 15.2%; change in vivo at 0.1 %, 50 mg ([2]; rat, paper disk, read-out: Weight of granuloma, per cent of change of the controls): -6.3 ± 5.5%
